System: patients with COPD
Assay: Pharmacodynamic and safety assessments (ECG, vital signs, serum potassium, adverse events, laboratory), Example 1
Type: in vivo, human
Description: Twelve-lead electrocardiograms (ECGs) were conducted after the subject had been resting and supine for ≧3 minutes. In addition to screening and pre-treatment baseline (Day 0) measurements, ECGs were also recorded at specific times during the treatment period. All 12-lead ECG monitors used for this study were calibrated and standardized. The ventricular rate, PR interval (the time elapsing between the beginning of the P wave and the beginning of the QRS interval in an electrocardiogram, corresponding to the electrical activity through the atria), QRS interval (the movement of electrical impulses through the ventricles), QT/QTc interval (the QT interval measures the time between the start of the Q wave and the end of the T wave in the heart's electrical cycle; QTc is a corrected QT interval, as determined by Fridericia's formula [QTcF] and Bazett's formula [QTcB]), and the overall ECG interpretation (normal or abnormal) were documented. Measurements were recorded prior to collection of any blood samples, where applicable. At least three original copies of each ECG (one each for the site, for the sponsor, and for the central ECG provider) were made. […]
Vital signs (heart rate and systolic blood pressure) were measured after the subject had been sitting for ≧3 minutes. […] Measurements were recorded prior to the collection of any blood samples, where applicable. […]

CCOc1ccc(-c2nc(-c3cccc(C(=O)O)n3)cs2)cc1OCC [Tetomilast, 2-(3,4-diethoxyphenyl)-4-(2-carboxy-6-pyridyl)thiazole]
differences in adverse events, serum chemistry, hematology, or urinalysis versus placebo (oral tetomilast with inhaled albuterol): no clinically meaningful differences | changes in heart rate, systolic blood pressure, serum potassium, or QT interval versus placebo (oral tetomilast with relatively high doses of inhaled albuterol): No clinically meaningful changes

Reference: patent US20120010179A1, “Methods of using a thiazole derivative” (priority 2006, published 2012)
